Reference: patent US11512268B2, “Storage-stable enzyme preparations, their production and use” (BASF SE, priority 2017, dated 2022)

Experiments:
[1] = target: T1, Lipolase (Thermomyces lanuginosus, UniProt O59952); assay: storage stability of lipase (Lipolase activity, pNitrophenol-valerate substrate) in liquid formulations at 37° C.; assay type: biochemical, Thermomyces lanuginosa; details: component (a) 2.5 wt %, Lipolase 0.4 wt %, storage at 37° C.
T1 construct: purchased Sigma-Aldrich
T1 sequence (O59952 23-291): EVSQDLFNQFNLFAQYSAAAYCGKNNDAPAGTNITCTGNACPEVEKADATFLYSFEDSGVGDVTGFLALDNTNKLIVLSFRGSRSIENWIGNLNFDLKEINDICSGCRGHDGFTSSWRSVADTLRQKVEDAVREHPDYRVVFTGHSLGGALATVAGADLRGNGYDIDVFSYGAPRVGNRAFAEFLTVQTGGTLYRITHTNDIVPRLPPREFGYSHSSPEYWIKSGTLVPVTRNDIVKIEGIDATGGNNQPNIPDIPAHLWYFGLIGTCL
Description: (§1) The storage stability of Lipase and Protease in water was assessed at 37° C.
(§2) Base test formulations were manufactured by making base formulations I to VI by mixing the components according to Table 1.
(§3) The respective salt (component (a)) or comparative compound was added, if applicable, to the respective base formulation in amounts as indicated in Table 1.
(§4) The amount of enzyme as provided in Table 1 refers to active protein. Either lipase or protease was added, depending on which enzyme activity was measured.
(§5) Lipolase® 100 L (CAS-No. 9001-62-1, EC-No. 232-619-9) was purchased from Sigma-Aldrich. Savinase® 16.0 L (CAS-No. 9014-01-1, EC-No. 232-752-2) was purchased from Sigma-Aldrich.
Lipolase activity at certain points in time as indicated in Table 2 was be determined by employing pNitrophenol-valerate (2.4 mM pNP-C5 in 100 mM Tris pH 8.0, 0.01% Triton X100) as a substrate. The absorption was measured at 20° C. every 30 seconds over 5 minutes at 405 nm. The slope (absorbance increase at 405 nm per minute) of the time dependent absorption-curve is directly proportional to the activity of the lipase.
The lipolytic activity values provided in Table 2 were calculated referring to the 100% value determined in the reference formulation at the time 0.
(§6) The nomenclature of formulations is as follows: the Roman number before the full stop characterizes the base formulation, the Arabian number the type of salt (A.# inventive salt (component (a)); C-(A.#) comparative compound). Zero (“0”): no salt, but diethylene glycol.

[2] = target: T2, Savinase (Lederbergia lenta, UniProt P29600); assay: storage stability of protease (Savinase activity, Suc-AAPF-pNA substrate) in liquid formulations at 37° C.; assay type: biochemical; details: base formulation III., component (a) 2.5 wt %, Savinase 16.0 L 0.5 wt %, storage at 37° C.
T2 construct: purchased Sigma-Aldrich
T2 sequence (P29600 1-269): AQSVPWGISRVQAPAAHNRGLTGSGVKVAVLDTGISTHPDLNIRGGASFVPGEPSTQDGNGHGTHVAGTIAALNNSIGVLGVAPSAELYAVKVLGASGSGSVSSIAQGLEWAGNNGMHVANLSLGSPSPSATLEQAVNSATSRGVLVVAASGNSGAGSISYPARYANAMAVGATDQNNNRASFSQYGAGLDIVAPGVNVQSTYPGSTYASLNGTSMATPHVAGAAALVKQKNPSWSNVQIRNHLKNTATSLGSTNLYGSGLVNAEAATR
Description: as §1, §2, §3, §4, §5
Savinase activity at certain points in time as indicated in Table 3 was be determined by employing Succinyl-Ala-Ala-Pro-Phe-p-nitroanilide (Suc-AAPF-pNA, short AAPF) as substrate. pNA is cleaved from the substrate molecule by proteolytic cleavage, resulting in release of yellow color of free pNA which was determined by measuring OD405. Measurement were done at 20° C.
The proteolytic activity values provided in Table 3 were calculated referring to the 100% value determined in the reference formulation at the time 0.
as §6

Structure (SMILES) | lipase activity ([1]; base formulation III., 1 d) [%] | lipase activity ([1]; base formulation III., 3 d) [%] | lipase activity ([1]; base formulation III., 6 d) [%] | lipase activity ([1]; base formulation III., 10 d) [%] | lipase activity ([1]; base formulation III., 15 d) [%] | lipase activity ([1]; base formulation III., 20 d) [%] | lipase activity ([1]; base formulation III., 25 d) [%] | lipase activity ([1]; base formulation III., 30 d) [%] | lipase activity ([1]; base formulation III., T0) [%] | lipase activity ([1]; base formulation II., 1 d) [%] | lipase activity ([1]; base formulation II., 3 d) [%] | lipase activity ([1]; base formulation II., 6 d) [%] | lipase activity ([1]; base formulation II., 10 d) [%] | lipase activity ([1]; base formulation II., 15 d) [%] | lipase activity ([1]; base formulation II., 20 d) [%] | lipase activity ([1]; base formulation II., 25 d) [%] | lipase activity ([1]; base formulation II., 30 d) [%] | further results
O=C([O-])CC(O)(CC(=O)[O-])C(=O)O.[Na+].[Na+] [C-(A.21), disodium salt of citric acid] | 93 | 78 | 68 | 50 | 39 | 31 | 25 | 20 | 101 | – | – | – | – | – | – | – | – | –
CC(=O)OCC[N+](C)(C)C [(A.12), Acetylcholine] | 98 | 97 | 95 | 91 | 86 | 80 | 78 | 74 | – | 98 | 96 | 95 | 88 | 86 | 80 | 77 | 76 | protease activity ([2]; 1 d): 96%; protease activity ([2]; 3 d): 92%; protease activity ([2]; 6 d): 80%; protease activity ([2]; 10 d): 70%; protease activity ([2]; 15 d): 61%; protease activity ([2]; 20 d): 50%; protease activity ([2]; 25 d): 39%; protease activity ([2]; 30 d): 31%; protease activity ([2]; T0): 96%
O=C([O-])CC(O)(CC(=O)[O-])C(=O)[O-].[Na+].[Na+].[Na+] [C-(A.22), trisodium salt of citric acid] | 92 | 76 | 66 | 48 | 37 | 28 | 23 | 19 | 98 | 87 | 79 | 67 | 55 | 40 | 33 | 24 | 18 | lipase activity ([1]; base formulation II., T0): 95%
O=C([O-])CC(O)(CC(=O)O)C(=O)O.[Na+] [C-(A.20), monosodium salt of citric acid] | 92 | 79 | 70 | 51 | 39 | 30 | 22 | 16 | 100 | – | – | – | – | – | – | – | – | –
